Experimental data: patent US20230093861A1, “RAPAMYCIN ANALOGS AS MTOR INHIBITORS” (Revolution Medicines, Inc., priority 2017, published 2023)

What was measured:
P-P70S6K (T389) = test: Cell based AlphaLISA assay, inhibition of P-P70S6K (T389) (mTORC1 substrate phosphorylation) in MDA-MB-468 cells; conditions: Homo sapiens, 4 h, AlphaLISA, two to four hours at 37° C., read-out: pIC50 for Inhibition of mTORC1 and mTORC2 Substrate Phosphorylation, P-P70S6K-(T389) (converted)
Procedure: (§1) Cell Based AlphaLISA Assays for Determining IC50 for Inhibition of P-Akt (S473), P-4E-BP1 (T37/46), and P-P70S6K (T389) in MDA-MB-468 Cells
(§2) mTOR Kinase Cellular Assay
(§3) To measure functional activity of mTORC1 and mTORC2 in cells the phosphorylation of 4EBP1 (Thr37/46) and P70S6K (Thr389), and AKT1/2/3 (Ser473) was monitored using AlphaLisa SureFire Ultra Kits (Perkin Elmer). […] Incubations were terminated by removal of the assay buffer and addition of lysis buffer provided with the assay kit. Samples were processed according to the manufacturer's instructions. The Alpha signal from the respective phosphoproteins was measured in duplicate using a microplate reader (Envision, Perkin-Elmer or Spectramax M5, Molecular Devices). Inhibitor concentration response curves were analyzed using normalized IC50 regression curve fitting with control based normalization.

P-4E-BP1 (T37/46) = test: Cell based AlphaLISA assay, inhibition of P-4E-BP1 (T37/46) (mTORC1 substrate phosphorylation) in MDA-MB-468 cells; conditions: Homo sapiens, MDA-MB-468, 4 h, AlphaLISA, two to four hours at 37° C., read-out: pIC50 for Inhibition of mTORC1 and mTORC2 Substrate Phosphorylation, P-4E-BP1-(T37/46) (converted)
Procedure: as §1, §2, §3

P-Akt (S473) = test: Cell based AlphaLISA assay, inhibition of P-Akt (S473) (mTORC2 substrate phosphorylation) in MDA-MB-468 cells; conditions: Homo sapiens, MDA-MB-468, 4 h, AlphaLISA, two to four hours at 37° C., read-out: pIC50 for Inhibition of mTORC1 and mTORC2 Substrate Phosphorylation, p-AKT 1/2/3 -(S473) (converted)
Procedure: as §1, §2, §3

Structure (SMILES) | IC50 (P-P70S6K (T389)) [nM] | IC50 (P-4E-BP1 (T37/46)) [nM] | IC50 (P-Akt (S473)) [nM]
CO[C@H]1C[C@@H]2CC[C@@H](C)[C@@](O)(O2)C(=O)C(=O)N2CCCC[C@H]2C(=O)O[C@H]([C@H](C)C[C@@H]2CC[C@H](n3cc(CCCC(=O)NCCOCCOCCOCCC(=O)NCCOCCOCCC(=O)NCCCCn4nc(-c5ccc6oc(N)nc6c5)c5c(N)ncnc54)nn3)[C@H](OC)C2)C[C@@H](OC)[C@H](C)/C=C(\C)[C@@H](O)[C@@H](OC)C(=O)[C@H](C)C[C@H](C)/C=C/C=C/C=C/1C [Example 162] | 1 to 10 | 31.6 to 1000 | > 1000
CO[C@H]1C[C@@H]2CC[C@@H](C)[C@@](O)(O2)C(=O)C(=O)N2CCCC[C@H]2C(=O)O[C@H]([C@H](C)C[C@@H]2CC[C@@H](O)[C@H](OC)C2)C[C@@H](O)[C@H](C)/C=C(\C)[C@@H](O)[C@@H](OC)C(=NOCc2cn(CCOCCOCCOCCOCCOCCOCCC(=O)NCCCCn3nc(-c4ccc5oc(N)nc5c4)c4c(N)ncnc43)nn2)[C@H](C)C[C@H](C)/C=C/C=C/C=C/1C [Example 51] | 1 to 10 | 3.16 to 31.6 | 31.6 to 1000
CO[C@H]1C[C@@H]2CC[C@@H](C)[C@@](O)(O2)C(=O)C(=O)N2CCCC[C@H]2C(=O)O[C@H]([C@H](C)C[C@@H]2CC[C@@H](OCCCCc3cn(CCOCCOCCOCCOCCOCCOCCOCCOCCC(=O)NCCCCn4nc(I)c5c(N)ncnc54)nn3)[C@H](OC)C2)CC(=O)[C@H](C)/C=C(\C)[C@@H](O)[C@@H](OC)C(=O)[C@H](C)C[C@H](C)/C=C/C=C/C=C/1C [Example 4] | < 1 | > 1000 | > 1000
CO[C@H]1C[C@@H]2CC[C@@H](C)[C@@](O)(O2)C(=O)C(=O)N2CCCC[C@H]2C(=O)O[C@H]([C@H](C)C[C@@H]2CC[C@H](n3cc(COC(=O)NCCOCCOCCOCCC(=O)NCCOCCOCCC(=O)NCCCCn4nc(-c5cc6cc(O)ccc6[nH]5)c5c(N)ncnc54)nn3)[C@H](OC)C2)C/C(=N/OC(C)(C)C)[C@H](C)/C=C(\C)[C@@H](O)[C@@H](OC)C(=O)[C@H](C)C[C@H](C)/C=C/C=C/C=C/1C [Example 159] | < 1 | > 1000 | > 1000
COC(=O)NC1C[C@@H]2CC[C@@H](C)[C@@](O)(O2)C(=O)C(=O)N2CCCC[C@H]2C(=O)O[C@H]([C@H](C)C[C@@H]2CC[C@@H](OCCCCc3cn(CCOCCOCCOCCOCCOCCOCCOCCOCCC(=O)NCCCCn4nc(-c5ccc6oc(N)nc6c5)c5c(N)ncnc54)nn3)[C@H](OC)C2)CC(=O)[C@H](C)/C=C(\C)[C@@H](O)[C@@H](OC)C(=O)[C@H](C)C[C@H](C)/C=C/C=C/C=C/1C (stereo partly drawn) [Example 38] | 1 to 10 | 3.16 to 31.6 | 31.6 to 1000
CCO[C@@H]1C[C@@H]([C@H](C)C[C@@H]2CC[C@@H](O)[C@H](OC)C2)OC(=O)[C@@H]2CCCCN2C(=O)C(=O)[C@]2(O)O[C@@H](CC[C@H]2C)C[C@H](OC)/C(C)=C/C=C/C=C/[C@@H](C)C[C@@H](C)C(=NOCc2cn(CCOCCOCCOCCOCCOCCOCCC(=O)NCCCCn3nc(-c4ccc5oc(N)nc5c4)c4c(N)ncnc43)nn2)[C@H](OC)[C@H](O)/C(C)=C/[C@H]1C [Example 65] | 1 to 10 | 3.16 to 31.6 | 31.6 to 1000
CO[C@H]1C[C@@H]2CC[C@@H](C)[C@@](O)(O2)C(=O)C(=O)N2CCCC[C@H]2C(=O)O[C@H]([C@H](C)C[C@@H]2CC[C@H](n3cc(CCCC(=O)NCCOCCOCCOCCC(=O)NCCOCCOCCOCCOCCC(=O)NCCCCn4nc(-c5cc6cc(O)ccc6[nH]5)c5c(N)ncnc54)nn3)[C@H](OC)C2)CC(=O)[C@H](C)/C=C(\C)[C@@H](O)[C@@H](OC)C(=O)[C@H](C)C[C@H](C)/C=C/C=C/C=C/1C [Example 133] | 1 to 10 | 3.16 to 31.6 | 31.6 to 1000
CO[C@H]1C[C@@H]2CC[C@@H](C)[C@@](O)(O2)C(=O)C(=O)N2CCCC[C@H]2C(=O)O[C@H]([C@H](C)C[C@@H]2CC[C@H](n3cc(-c4cnc(N5CCN(c6ncc(C(=O)NCCOCCOCCOCCOCCC(=O)N7CCc8cc(Cn9nc(-c%10ccc%11oc(N)nc%11c%10)c%10c(N)ncnc%109)ccc8C7)cn6)CC5)nc4)nn3)[C@H](OC)C2)CC(=O)[C@H](C)/C=C(\C)[C@@H](O)[C@@H](OC)C(=O)[C@H](C)C[C@H](C)/C=C/C=C/C=C/1C [Example 117] | < 1 | > 1000 | > 1000
CO[C@H]1C[C@@H]2CC[C@@H](C)[C@@](O)(O2)C(=O)C(=O)N2CCCC[C@H]2C(=O)O[C@H]([C@H](C)C[C@@H]2CC[C@@H](OCc3cccc(-c4cnc(N5CCN(C(=O)CCc6cn(CCOCCOCCC(=O)NCCCCn7nc(-c8ccc9oc(N)nc9c8)c8c(N)ncnc87)nn6)CC5)nc4)c3)[C@H](OC)C2)CC(=O)[C@H](C)/C=C(\C)[C@@H](O)[C@@H](OC)C(=O)[C@H](C)C[C@H](C)/C=C/C=C/C=C/1C [Example 47] | < 1 | < 3.16 | 3.16 to 31.6
CCO[C@@H]1C[C@@H]([C@H](C)C[C@@H]2CC[C@H](n3cc(CCCC(=O)NCCOCCOCCOCCC(=O)NCCOCCOCCC(=O)NCCCCn4nc(-c5ccc6oc(N)nc6c5)c5c(N)ncnc54)nn3)[C@H](OC)C2)OC(=O)[C@@H]2CCCCN2C(=O)C(=O)[C@]2(O)O[C@@H](CC[C@H]2C)C[C@H](OC)/C(C)=C/C=C/C=C/[C@@H](C)C[C@@H](C)C(=O)[C@H](OC)[C@H](O)/C(C)=C/[C@H]1C [Example 165] | 1 to 10 | 31.6 to 1000 | > 1000
CO[C@H]1C[C@@H]2CC[C@@H](C)[C@@](O)(O2)C(=O)C(=O)N2CCCC[C@H]2C(=O)O[C@H]([C@H](C)C[C@@H]2CC[C@@H](OCc3cccc(-c4cnc(N5CCN(S(=O)(=O)CCc6cn(CCOCCOCCOCCC(=O)NCCCCn7nc(-c8ccc9oc(N)nc9c8)c8c(N)ncnc87)nn6)CC5)nc4)c3)[C@H](OC)C2)CC(=O)[C@H](C)/C=C(\C)[C@@H](O)[C@@H](OC)C(=O)[C@H](C)C[C@H](C)/C=C/C=C/C=C/1C [Example 27] | < 1 | < 3.16 | 3.16 to 31.6
CO[C@H]1C[C@@H]2CC[C@@H](C)[C@@](O)(O2)C(=O)C(=O)N2CCCC[C@H]2C(=O)O[C@H]([C@H](C)C[C@@H]2CC[C@H](n3cc(-c4cnc(N5CCN(c6ncc(C(=O)NCCOCCOCCOCCOCCOCCC(=O)NCCCCn7nc(-c8cc9cc(O)ccc9[nH]8)c8c(N)ncnc87)cn6)CC5)nc4)nn3)[C@H](OC)C2)CC(=O)[C@H](C)/C=C(\C)[C@@H](O)[C@@H](OC)C(=O)[C@H](C)C[C@H](C)/C=C/C=C/C=C/1C [Example 119] | < 1 | > 1000 | > 1000
CO[C@H]1C[C@@H]2CC[C@@H](C)[C@@](O)(O2)C(=O)C(=O)N2CCCC[C@H]2C(=O)O[C@H]([C@H](C)C[C@@H]2CC[C@@H](OCc3cccc(-c4cnc(N5CCN(Cc6cn(CCOCCOCCOCCC(=O)NCCCCn7nc(-c8ccc9oc(N)nc9c8)c8c(N)ncnc87)nn6)C(CO)C5)nc4)c3)[C@H](OC)C2)CC(=O)[C@H](C)/C=C(\C)[C@@H](O)[C@@H](OC)C(=O)[C@H](C)C[C@H](C)/C=C/C=C/C=C/1C (stereo partly drawn) [Example 25] | < 1 | < 3.16 | 3.16 to 31.6
